What all share (format): cell-based, human
Experiment [1] relates to fibrocytes obtained from normal subjects. The experiment is described as follows: plasma-induced fibrocyte migration, modified Boyden chamber assay. The procedure:
(§1) Purification of nonadherent non-T (NANT) cells was performed. Briefly, peripheral blood mononuclear cells (PBMC) were separated from whole blood by Ficoll-Hypaque density gradient centrifugation. After the first centrifugation at 150 g for 15 min, the top plasma layer was harvested and kept at −80° C. for further analysis. Mononuclear cells at the interface were harvested, washed once with 1×PBS. Erythrocyte lysis was performed by adding 20 ml of hypotonic 0.2% NaCl solution during 30s, followed by adding 20 ml of 1.6% NaCl to end with an isotonic solution. Mononuclear cells were again washed with 1×PBS, resuspended in Dulbecco's modified Eagle medium (DMEM), 4.5 g/l glucose, L-glutamine, supplemented with 20% fetal bovine serum (FBS), penicillin/streptomycin and MEM non essential amino acid and incubated 1 h at 37° C. The non-adherent mononuclear cell fraction was taken and washed in cold 1×PBS 0.5% BSA, 2 mM EDTA. T-cells were further depleted with anti-CD3 monoclonal antibody (Miltenyi Biotech). At least 0.2×10^6 nonadherent non-T (NANT) cells were distributed in each FACS tube and fixed overnight with Cytofix/Cytoperm (eBioscience).
(§2) Fibrocyte migration was assessed using a modified Boyden chamber assay. The transwell inserts (pore size 8 μm) and the wells were coated for 1 h at room temperature with poly-lysine-ethylene glycol (PEG-PLL, Susos) to prevent cell adhesion. The inserts and the wells were rinsed with PBS. 0,3.10^6 nonadherent non-T (NANT) cells resuspended in 0.2 ml […] DMEM, 4.5 g/l glucose, L-glutamine, supplemented with ITS, penicillin/streptomycin and MEM non essential amino acid were added to the upper compartment of each well. When indicated, NANT cells were pretreated for 1 h at 37° by 25 μg/ml plerixafor (Sigma-Aldrich) or 10 μM SB 328437 (R&D Systems) before being added to the upper compartment. Recombinant human CXCL12 (25 ng/ml to 200 ng/ml; R&D Systems), recombinant human CCL11 (25 ng/ml to 200 ng/ml; R&D Systems) or plasma (50% dilution) extracted from blood coming from COPD V1 patient or control subject was added to the bottom compartment of each well. After about 12 h, the content of bottom compartment was removed to assess fibrocyte migration by flow cytometry using double labeling CD45-collagen I. To obtain absolute values of migratory cells, flow cytometric counts for each condition were obtained during a constant predetermined time period (1 min). The fraction of migratory fibrocytes was defined by the ratio between the number CD45+coll I+ cells counted in the bottom chamber divided by the number of CD45+coll I+ cells added in the upper compartment. These values were normalized to the fraction of migratory fibrocytes obtained in the basal condition (medium only).

Experiment [2] concerns fibrocytes obtained from exacerbating COPD patients. The experiment is described as above. The procedure: as §1, §2
Another experiment has as its system fibrocytes. The experiment is described as follows: fibrocyte migration in response to recombinant chemokine (CXCL12, CCL11), modified Boyden chamber assay. The procedure:
as §1
Fibrocyte migration was assessed using a modified Boyden chamber assay. The transwell inserts (pore size 8 μm) and the wells were coated for 1 h at room temperature with poly-lysine-ethylene glycol (PEG-PLL, Susos) to prevent cell adhesion. The inserts and the wells were rinsed with PBS. 0,3.10^6 nonadherent non-T (NANT) cells resuspended in 0.2 ml […] DMEM, 4.5 g/l glucose, L-glutamine, supplemented with ITS, penicillin/streptomycin and MEM non essential amino acid were added to the upper compartment of each well. […] The fraction of migratory fibrocytes was defined by the ratio between the number CD45+coll I+ cells counted in the bottom chamber divided by the number of CD45+coll I+ cells added in the upper compartment. […]

For the compound `c1cc(CN2CCCNCCNCCCNCC2)ccc1CN1CCCNCCNCCCNCC1` [Plerixafor], the “plasma-induced migration of fibrocytes” value in experiment [1] (fibrocytes from normal (control) subjects, plasma of exacerbating COPD patients (50% dilution), cells pretreated 1 h with 25 μg/ml plerixafor, about 12 h, FIG. 5A) was “no significant reduction”. Besides, the “plasma-induced recruitment of fibrocytes” value in experiment [2] (plasma of exacerbating COPD patients (50% dilution), cells pretreated 1 h with 25 μg/ml plerixafor, about 12 h, FIG. 5A) is “significant reduction”. Moreover, in the experiment with fibrocytes (CXCL12 alpha-induced migration, cells pretreated 1 h with 25 μg/ml plerixafor, FIG. 5D), the “fibrocyte migration in response to CXCL12 in presence of antagonist” value is “completely abolished”.

Consider `COC(=O)[C@H](Cc1ccc([N+](=O)[O-])cc1)NC(=O)c1ccc2ccccc2c1` [SB 328437, (S)-methyl-2-naphthoylamino-3-(4-nitrophenyl) propionate], for which the “plasma-induced migration of fibrocytes” value in experiment [1] (fibrocytes from control subjects, plasma of exacerbating COPD patients, cells pretreated 1 h with 10 μM SB 328437, Figure E3A (FIG. 8A)) is given as “not affected”; in experiment [2] (plasma of exacerbating COPD patients, cells pretreated 1 h with 10 μM SB 328437, Figure E3A (FIG. 8A)), “not affected”.

Regarding “CXCL12 alpha: recombinant human CXCL12 (R&D Systems), chemokine ligand of CXCR4”, the “migration of fibrocytes from exacerbating COPD patient compared to fibrocytes from control subjects” value in the experiment with fibrocytes (100 ng/ml chemokine, FIG. 5C) was “significantly higher migration”. Moreover, the “migratory response of fibrocytes to increasing concentrations of chemokine” value in the experiment with fibrocytes (recombinant human chemokine 25 ng/ml to 200 ng/ml in bottom compartment, about 12 h, FIG. 5C, Figure E3C) is listed as “induced a significant fibrocytes migration in a dose-dependent manner”.

For the origin of these results see patent publication US10813911B2, “Methods of treating and/or preventing chronic obstructive pulmonary disease” (UNIVERSITE DE BORDEAUX, priority 2015, dated 2020).
